Source: ChEMBL document CHEMBL1201862, “PubChem BioAssay data set” (2004)
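96-well plates; 48 h exposure; 5 concentrations. Endpoints by linear interpolation between flanking doses. Not reached: highest tested concentration assigned. Here, GI50 denotes the concentration required for 50% inhibition of growth.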 Calls of active or inactive are those of the source. Rule as the data show it: active = GI50 up to about 1.1 µM and inactive = higher.

Legend:
Assay in all cases: NCI tumour cell line growth inhibition, 48 h
[1] = tested on: SF-295
[2] = tested on: SF-268
[3] = tested on: M14
[4] = tested on: KM12
[5] = tested on: UACC-257
[6] = tested on: RXF 393
[7] = tested on: OVCAR-8
[8] = tested on: HT-29
[9] = tested on: HOP-92
[10] = tested on: HCC 2998
[11] = tested on: SF-539
[12] = tested on: SK-MEL-28
[13] = tested on: SN12C
[14] = tested on: Malme-3M
[15] = tested on: OVCAR-4
[16] = tested on: 786-0
[17] = tested on: U-251
[18] = tested on: COLO 205
[19] = tested on: ACHN
[20] = tested on: NCI-H522
[21] = tested on: A549
[22] = tested on: SNB-75
[23] = tested on: OVCAR-5
[24] = tested on: NCI-H226
[25] = tested on: HOP-18
[26] = tested on: EKVX
[27] = tested on: NCI-H460
[28] = tested on: NCI-H23
[29] = tested on: HL-60
[30] = tested on: LXFL 529
[31] = tested on: DMS-273
[32] = tested on: TK-10
[33] = tested on: SW-620
[34] = tested on: LOX IMVI
[35] = tested on: M19-MEL
[36] = tested on: CAKI-1
[37] = tested on: HOP-62
[38] = tested on: SK-MEL-2
[39] = tested on: UO-31
[40] = tested on: DLD-1
[41] = tested on: OVCAR-3
[42] = tested on: SK-MEL-5
[43] = tested on: SNB-19
[44] = tested on: KM-20L2
[45] = tested on: SNB-78
[46] = tested on: HCT-15
[47] = tested on: UACC-62
[48] = tested on: HCT-116
[49] = tested on: MOLT-4
[50] = tested on: SK-OV-3
[51] = tested on: K562
[52] = tested on: IGROV-1
[53] = tested on: MDA-MB-231
[54] = tested on: BT-549
[55] = tested on: A498
[56] = tested on: Hs-578T
[57] = tested on: DU-145
[58] = tested on: RPMI-8226
[59] = tested on: MDA-N
[60] = tested on: CCRF-CEM
[61] = tested on: NCI/ADR-RES
[62] = tested on: T47D
[63] = tested on: MCF7
[64] = tested on: MDA-MB-435
[65] = tested on: SR
[66] = tested on: PC-3

SMILES: CCc1cc(C)cc2[n+]1CC=C2C.[O-][Cl+3]([O-])([O-])[O-]
- GI50 [1]: > 100 µM (inactive)
- GI50 [2]: > 100 µM (inactive)
- GI50 [3]: > 100 µM (inactive)
- GI50 [4]: > 100 µM (inactive)
- GI50 [5]: 27.3 µM (inactive)
- GI50 [6]: 27.3 µM (inactive)
- GI50 [7]: > 100 µM (inactive)
- GI50 [8]: > 100 µM (inactive)
- GI50 [9]: 8.63 µM (inactive)
- GI50 [10]: > 100 µM (inactive)
- GI50 [11]: > 100 µM (inactive)
- GI50 [12]: > 100 µM (inactive)
- GI50 [13]: > 100 µM (inactive)
- GI50 [14]: 35 µM (inactive)
- GI50 [15]: > 100 µM (inactive)
- GI50 [16]: > 100 µM (inactive)
- GI50 [17]: > 100 µM (inactive)
- GI50 [18]: > 100 µM (inactive)
- GI50 [19]: > 100 µM (inactive)
- GI50 [20]: 49.7 µM (inactive)
- GI50 [21]: > 100 µM (inactive)
- GI50 [22]: > 100 µM (inactive)
- GI50 [23]: > 100 µM (inactive)
- GI50 [24]: > 100 µM (inactive)
- GI50 [25]: 1.72 µM (inactive)
- GI50 [26]: > 100 µM (inactive)
- GI50 [27]: > 100 µM (inactive)
- GI50 [28]: 66.1 µM (inactive)
- GI50 [29]: 18.2 µM (inactive)
- GI50 [30]: 80.5 µM (inactive)
- GI50 [31]: 92 µM (inactive)
- GI50 [32]: > 100 µM (inactive)
- GI50 [33]: > 100 µM (inactive)
- GI50 [34]: > 100 µM (inactive)
- GI50 [35]: > 100 µM (inactive)
- GI50 [36]: 65.9 µM (inactive)
- GI50 [37]: > 100 µM (inactive)
- GI50 [38]: > 100 µM (inactive)
- GI50 [39]: > 100 µM (inactive)
- GI50 [40]: > 100 µM (inactive)
- GI50 [41]: 93.1 µM (inactive)
- GI50 [42]: > 100 µM (inactive)
- GI50 [43]: > 100 µM (inactive)
- GI50 [44]: > 100 µM (inactive)
- GI50 [45]: > 100 µM (inactive)

SMILES: CCN(CC)C(=S)SS(C)(=O)=O
- GI50 [46]: 13.4 µM
- GI50 [1]: 18.9 µM (inactive)
- GI50 [47]: 15.1 µM (inactive)
- GI50 [3]: 18.2 µM (inactive)
- GI50 [4]: 17.1 µM (inactive)
- GI50 [5]: 23.2 µM (inactive)
- GI50 [6]: 11 µM (inactive)
- GI50 [7]: 19.8 µM (inactive)
- GI50 [8]: 17.3 µM (inactive)
- GI50 [9]: 30.6 µM (inactive)
- GI50 [48]: 26.4 µM (inactive)
- GI50 [11]: 22 µM (inactive)
- GI50 [13]: 16 µM (inactive)
- GI50 [14]: 26.7 µM (inactive)
- GI50 [15]: 19.6 µM (inactive)
- GI50 [16]: 19.2 µM (inactive)
- GI50 [17]: 17.7 µM (inactive)
- GI50 [18]: 15.4 µM (inactive)
- GI50 [19]: 16.7 µM (inactive)
- GI50 [20]: < 0.01 µM (active)
- GI50 [22]: 29.6 µM (inactive)
- GI50 [23]: 19.4 µM (inactive)
- GI50 [24]: 14.8 µM (inactive)
- GI50 [25]: 38.2 µM (inactive)
- GI50 [26]: 37.2 µM (inactive)
- GI50 [49]: 15.8 µM (inactive)
- GI50 [28]: 19.9 µM (inactive)
- GI50 [29]: 5.12 µM (inactive)
- GI50 [50]: 75.7 µM (inactive)
- GI50 [30]: 16.4 µM (inactive)
- GI50 [31]: 20.3 µM (inactive)
- GI50 [32]: 18.3 µM (inactive)
- GI50 [33]: 18.5 µM (inactive)
- GI50 [34]: 13.6 µM (inactive)
- GI50 [35]: 16.4 µM (inactive)
- GI50 [36]: 22.4 µM (inactive)
- GI50 [37]: 18.7 µM (inactive)
- GI50 [51]: < 0.01 µM (active)
- GI50 [38]: 17.7 µM (inactive)
- GI50 [39]: 19 µM (inactive)
- GI50 [40]: 18 µM (inactive)
- GI50 [42]: 25.5 µM (inactive)
- GI50 [43]: 23.9 µM (inactive)
- GI50 [45]: 23.7 µM (inactive)
- GI50 [52]: > 100 µM (inactive)

SMILES: CC1(C)CCC(C)(C)c2cc(NC(=O)c3ccc(C(=O)O)cc3)ccc21 [TAMIBAROTENE]
- GI50 [46]: 26.9 µM
- GI50 [1]: 22.6 µM (inactive)
- GI50 [47]: 16.5 µM (inactive)
- GI50 [2]: 34.8 µM (inactive)
- GI50 [53]: > 49.1 µM (inactive)
- GI50 [3]: 26.5 µM (inactive)
- GI50 [4]: 20.7 µM (inactive)
- GI50 [5]: 29.4 µM (inactive)
- GI50 [6]: 26.9 µM (inactive)
- GI50 [54]: 25.7 µM (inactive)
- GI50 [55]: 23.7 µM (inactive)
- GI50 [7]: 41.5 µM (inactive)
- GI50 [8]: 25.8 µM (inactive)
- GI50 [56]: 24.5 µM (inactive)
- GI50 [57]: 23.8 µM (inactive)
- GI50 [9]: 24.7 µM (inactive)
- GI50 [48]: 18.7 µM (inactive)
- GI50 [10]: 27.2 µM (inactive)
- GI50 [58]: 20.4 µM (inactive)
- GI50 [11]: 17.7 µM (inactive)
- GI50 [12]: > 48.3 µM (inactive)
- GI50 [13]: 25.5 µM (inactive)
- GI50 [14]: 17.9 µM (inactive)
- GI50 [15]: 31.1 µM (inactive)
- GI50 [16]: 31.3 µM (inactive)
- GI50 [17]: 24.7 µM (inactive)
- GI50 [18]: 23.9 µM (inactive)
- GI50 [19]: 36.5 µM (inactive)
- GI50 [20]: 36.6 µM (inactive)
- GI50 [21]: 27 µM (inactive)
- GI50 [22]: > 100 µM (inactive)
- GI50 [23]: > 51.6 µM (inactive)
- GI50 [24]: 22.2 µM (inactive)
- GI50 [59]: 25.6 µM (inactive)
- GI50 [26]: 37.9 µM (inactive)
- GI50 [49]: 30.7 µM (inactive)
- GI50 [27]: 21.3 µM (inactive)
- GI50 [28]: 23.2 µM (inactive)
- GI50 [29]: 44.5 µM (inactive)
- GI50 [60]: 16.8 µM (inactive)
- GI50 [50]: 28 µM (inactive)
- GI50 [32]: 25.1 µM (inactive)
- GI50 [33]: > 60.4 µM (inactive)
- GI50 [34]: 22.9 µM (inactive)
- GI50 [36]: 47.6 µM (inactive)
- GI50 [37]: 23.6 µM (inactive)
- GI50 [61]: 31.9 µM (inactive)
- GI50 [62]: 33.7 µM (inactive)
- GI50 [63]: 28.9 µM (inactive)
- GI50 [64]: 25.9 µM (inactive)
- GI50 [65]: > 69.8 µM (inactive)
- GI50 [51]: 54.7 µM (inactive)
- GI50 [38]: 25.6 µM (inactive)
- GI50 [39]: 17.2 µM (inactive)
- GI50 [41]: 22.4 µM (inactive)
- GI50 [42]: 29.5 µM (inactive)
- GI50 [43]: 32.8 µM (inactive)
- GI50 [66]: 25.8 µM (inactive)
- GI50 [52]: 34.8 µM (inactive)
